One assay relates to Staph, Aureus (Smith). As to the kind of experiment: standard test using mice infected with Staph, Aureus (Smith), subcutaneous treatment. Format: in vivo. The note with it: Staphylococcus aureus, sc, pH 7.4, read-out: CD 50, mice, subcutaneous, isotonic or pH 7.4 buffered aqueous solution; LD 50 column prints 100. As for the experimental part:
The above compounds were tested per their antibacterial uses in a standard test, using mice infected with Staph, Aureus (Smith). […] The compounds of the above examples were administered subcutaneously as isotonic solutions or aqueous solutions buffered to a pH of 7.4.
On to `CCOC(=O)CCC(=O)O[C@H]1[C@H](O[C@@H]2[C@@H](C)[C@H](O[C@H]3C[C@@](C)(OC)[C@@H](O)[C@H](C)O3)[C@@H](C)C(=O)O[C@H](CC)[C@@](C)(O)[C@H](O)[C@@H](C)C(=O)[C@H](C)C[C@@]2(C)O)O[C@H](C)C[C@@H]1[N+](C)(C)COC(=O)c1ccccc1` [Example 5, 2'-ethylsuccinyl-N-benzoyloxymethyl erythromycin A iodide], for which the ED50 was 52 mg/kg.
For `CCOC(=O)CCC(=O)O[C@H]1[C@H](O[C@@H]2[C@@H](C)[C@H](O[C@H]3C[C@@](C)(OC)[C@@H](O)[C@H](C)O3)[C@@H](C)C(=O)O[C@H](CC)[C@@](C)(O)[C@H](O)[C@@H](C)C(=O)[C@H](C)C[C@@]2(C)O)O[C@H](C)C[C@@H]1[N+](C)(C)COC(=O)CC` [Example 7, 2'-ethylsuccinyl-N-propionyloxymethyl erythromycin A iodide], the ED50 came out at 24 mg/kg.

The assay is the same for the next values; noted with them: Staphylococcus aureus, sc, pH 7.4, read-out: CD 50, mice, subcutaneous, isotonic or pH 7.4 buffered aqueous solution; inoculation (a): LD50 of 10-100.
On to `CCC(=O)O[C@H]1[C@H](O[C@@H]2[C@@H](C)[C@H](O[C@H]3C[C@@](C)(OC)[C@@H](O)[C@H](C)O3)[C@@H](C)C(=O)O[C@H](CC)[C@@](C)(O)[C@H](O)[C@@H](C)C(=O)[C@H](C)C[C@@]2(C)O)O[C@H](C)C[C@@H]1[N+](C)(C)COC(=O)C(C)(C)C` [Example 1, 2'-propionyl-N-pivalyloxymethylerythromycin A iodide], for which the ED50 was 88 mg/kg.
Regarding `CCOC(=O)CCC(=O)O[C@H]1[C@H](O[C@@H]2[C@@H](C)[C@H](O[C@H]3C[C@@](C)(OC)[C@@H](O)[C@H](C)O3)[C@@H](C)C(=O)O[C@H](CC)[C@@](C)(O)[C@H](O)[C@@H](C)C(=O)[C@H](C)C[C@@]2(C)O)O[C@H](C)C[C@@H]1[N+](C)(C)COC(=O)C(C)(C)C` [Example 3, 2'-ethylsuccinyl-N-pivalyloxymethyl erythromycin A chloride], the ED50 came to 58 mg/kg.
On to `CC[C@H]1OC(=O)[C@H](C)[C@@H](O[C@H]2C[C@@](C)(OC)[C@@H](O)[C@H](C)O2)[C@H](C)[C@@H](O[C@@H]2O[C@H](C)C[C@H]([N+](C)(C)COC(=O)C(C)(C)C)[C@H]2OC(=O)CCC(=O)O)[C@](C)(O)C[C@@H](C)C(=O)[C@H](C)[C@@H](O)[C@]1(C)O` [Example 10, 2'-succinyl-N-pivalyloxymethyl erythromycin A chloride], for which the ED50 worked out at 37 mg/kg.
Turning to `CCOC(=O)CCC(=O)O[C@H]1[C@H](O[C@@H]2[C@@H](C)[C@H](O[C@H]3C[C@@](C)(OC)[C@@H](O)[C@H](C)O3)[C@@H](C)C(=O)O[C@H](CC)[C@@](C)(O)[C@H](O)[C@@H](C)C(=O)[C@H](C)C[C@@]2(C)O)O[C@H](C)C[C@@H]1[N+](C)(C)COC(=O)CCCCCC(=O)O` [Example 14, 2'-ethylsuccinyl-N-pimelyloxymethyl erythromycin chloride], the ED50 is 47 mg/kg.

Still in this assay, the particulars now being: Staphylococcus aureus, sc, pH 7.4, read-out: CD 50, mice, subcutaneous, isotonic or pH 7.4 buffered aqueous solution; inoculation (b): LD50 of 100-1000.
For the compound `CCOC(=O)CCC(=O)O[C@H]1[C@H](O[C@@H]2[C@@H](C)[C@H](O[C@H]3C[C@@](C)(OC)[C@@H](O)[C@H](C)O3)[C@@H](C)C(=O)O[C@H](CC)[C@@](C)(O)[C@H](O)[C@@H](C)C(=O)[C@H](C)C[C@@]2(C)O)O[C@H](C)C[C@@H]1[N+](C)(C)COC(=O)C(C)(C)C` [Example 2, 2'-ethylsuccinyl-N-pivalyloxymethylerythromycin A iodide], the ED50 came to 143 mg/kg.
Turning to `CCC(=O)O[C@H]1[C@H](O[C@@H]2[C@@H](C)[C@H](O[C@H]3C[C@@](C)(OC)[C@@H](O)[C@H](C)O3)[C@@H](C)C(=O)O[C@H](CC)[C@@](C)(O)[C@H](O)[C@@H](C)C(=O)[C@H](C)C[C@@]2(C)O)O[C@H](C)C[C@@H]1[N+](C)(C)COC(=O)c1ccccc1` [Example 4, 2'-propionyl-N-benzoyloxymethyl erythromycin A chloride], the ED50 is 40 mg/kg.
For the compound `CC[C@H]1OC(=O)[C@H](C)[C@@H](O[C@H]2C[C@@](C)(OC)[C@@H](O)[C@H](C)O2)[C@H](C)[C@@H](O[C@@H]2O[C@H](C)C[C@H]([N+](C)(C)COC(=O)C(C)(C)C)[C@H]2OC(=O)CCCC(=O)O)[C@](C)(O)C[C@@H](C)C(=O)[C@H](C)[C@@H](O)[C@]1(C)O` [Example 12, 2'-glutaryl-N-pivalyloxymethyl erythromycin A chloride], the ED50 worked out at 73 mg/kg.

The record behind these values is US4264765A, “Salts of erythromycin A esters” (priority 1980, dated 1981).
